Patent US20230053540A1, “TREATMENT OF LIVER INJURY” (Massachusetts Institute of Technology, priority 2019, published 2023)

Test system: hepatocytes
Assay: Seq-Well scRNA-Seq of hepatocytes after APAP overdose (signature scores, DEG vs untreated)
Format: in vivo, mouse
Details: APAP vs UT, composite DEG

CC(=O)Nc1ccc(O)cc1 [APAP, acetaminophen]
Apoa5 logFC: 0.3232 | Apob logFC: 0.5802 | Apoc3 logFC: −0.7688 | Apoc4 logFC: −1.002 | Apom logFC: −0.3024 | Aqp9 logFC: −0.3109 | Arg1 logFC: 0.3179 | Arhgap5 logFC: 0.2952 | Arhgef12 logFC: 0.5908 | Arl5a logFC: 0.2648 | Arl6ip1 logFC: −0.3649 | Arpc1b logFC: 0.2597 | Arrdc3 logFC: 0.5269 | Asgr2 logFC: 0.3064 | Asl logFC: 0.5586 | Ass1 logFC: −0.3144 | Atf5 logFC: 0.329 | Atf6 logFC: 0.3778 | Atp1a1 logFC: 0.4191 | Atp1b1 logFC: 0.3702 | Atp2a2 logFC: 0.495 | Atp2b1 logFC: 0.3321 | Atp5b logFC: 0.2917 | Atp5c1 logFC: −0.3476 | Atp5g3 logFC: −0.3002 | Atp5k logFC: −0.4773 | Atp5o logFC: −0.3316 | Atp6v1f logFC: −0.2529 | Atp11c logFC: 0.2605 | Atp13a3 logFC: 0.3945 | Atp5h logFC: −0.6398 | Atp5d logFC: 0.2501 | Atxn7l3b logFC: 0.3062 | Azin1 logFC: 0.2701 | B2m logFC: −0.418 | B4galt5 logFC: 0.4763 | BC025446 logFC: 0.2942 | BC089597 logFC: 0.2622 | Baat logFC: −0.3086 | Bach1 logFC: 0.8323 | Bbox1 logFC: −0.4082 | Bche logFC: 0.3134 | Bckdha logFC: −0.35 | Bcl2l1 logFC: 0.7751 | Bet1 logFC: −0.2966 | Bfar logFC: 0.2903 | Bhmt2 logFC: −0.3114 | Bhmt logFC: −0.5202 | Birc6 logFC: 0.3444 | Bnip3 logFC: 0.4032 | Bola3 logFC: −0.3689 | Bphl logFC: −0.4075 | Bptf logFC: 0.3245 | Brap logFC: 0.3492 | Brd2 logFC: 0.5715 | Bsg logFC: −0.3152 | Bst2 logFC: −0.3156 | Btaf1 logFC: 0.2755 | Bzw1 logFC: 0.2948 | C1qb logFC: 0.6817 | C3 logFC: 0.4495 | C4b logFC: 0.2833 | C8b logFC: −0.3602 | C8g logFC: −0.6545 | C9 logFC: −0.4271 | C130074G19Rik logFC: −0.3563 | C230081A13Rik logFC: 0.427 | Cald1 logFC: 0.3737 | Calr logFC: 0.5551 | Camk2n1 logFC: 0.2501 | Caprin1 logFC: 0.2628 | Car3 logFC: −1.036 | Car5a logFC: −0.3088 | Cars logFC: 0.3158 | Cast logFC: 0.4009 | Cbr1 logFC: 0.2847 | Ccbl1 logFC: −0.3649 | Ccl6 logFC: 0.7891 | Ccs logFC: −0.4267 | Cd1d1 logFC: 0.2912 | Cd5l logFC: 0.6935 | Cd14 logFC: 0.3621 | Cd163 logFC: 0.4408 | Cdkn1a logFC: 1.215 | Cebpa logFC: −0.3916 | Cela1 logFC: −0.2723 | Cep85l logFC: 0.2779 | Cers6 logFC: 0.5328 | Ces1b logFC: 0.373 | Ces1f logFC: −0.3126 | Ces3a logFC: −0.5253 | Ces1d logFC: −0.4289 | Cfhr1 logFC: −0.3253 | Chac2 logFC: −0.2865 | Chd1 logFC: 0.3788 | Chka logFC: 1.375 | Chpt1 logFC: 0.3566 | Cideb logFC: −0.3684 | Cidec logFC: 0.2994 | Cisd1 logFC: −0.3727 | Cldn2 logFC: −0.2511 | Cldn3 logFC: −0.3145 | Clec4f logFC: 1.108 | Clec4d logFC: 0.2636 | Cnpy2 logFC: −0.3729 | Coa6 logFC: −0.4114 | Commd6 logFC: −0.3645 | Comt logFC: −0.3684 | Copb2 logFC: 0.2839 | Copz1 logFC: 0.2577 | Coq9 logFC: −0.3479 | Coro1c logFC: 0.3067 | Cox4i1 logFC: −0.516 | Cox5a logFC: 0.4024 | Cox6a1 logFC: −0.4872 | Cox6b1 logFC: −0.362 | Cox6c logFC: −0.8443 | Cox8a logFC: 0.4417 | Cpne3 logFC: 0.258 | Cpt1a logFC: 0.3729 | Crat logFC: 0.2556 | Creb3l2 logFC: 0.4272 | Creb3l3 logFC: 0.2757 | Creg1 logFC: 0.2768 | Creld2 logFC: 0.6087 | Csad logFC: −0.5598 | Ctage5 logFC: 0.3287 | Cth logFC: −0.5109 | Ctnnb1 logFC: 0.2957 | Ctsa logFC: 0.252 | Ctsb logFC: 0.5213 | Ctsh logFC: 0.3245 | Ctss logFC: 0.7642 | Cvp2e1 logFC: −2.319 | Cxcl1 logFC: 0.4498 | Cxcl12 logFC: −0.3058 | Cxcr2 logFC: 0.4023 | Cyp4f14 logFC: −0.2959 | Cyp4f15 logFC: −0.2998 | Cyp27a1 logFC: −0.3735 | D10Jhu81e logFC: −0.3957 | D10Wsu102e logFC: 0.5878 | D17Wsu92e logFC: 0.372 | Dbi logFC: −0.7164 | Ddah1 logFC: −0.312 | Ddb1 logFC: 0.2778 | Ddc logFC: −0.3608 | Ddx6 logFC: 0.4443 | Ddx27 logFC: 0.2522 | Decr1 logFC: 0.4664 | Decr2 logFC: 0.4189 | Dennd5b logFC: 0.2935 | Deptor logFC: 0.2606 | Derl2 logFC: −0.3317 | Dgat2 logFC: −0.3433 | Dhcr24 logFC: 0.4238 | Dhdh logFC: −0.3348 | Dhrs4 logFC: −0.3321 | Dhx9 logFC: 0.3504 | Dmgdh logFC: 0.2658 | Dnajb9 logFC: 0.2586 | Dnajb11 logFC: 0.3154 | Dnajc3 logFC: 0.4564 | Dnajc19 logFC: −0.316 | Dusp5 logFC: 0.2964 | Dync1h1 logFC: 0.3796 | Dync1li1 logFC: 0.2624 | Ebp logFC: −0.3553 | Ech1 logFC: −0.4291 | Echs1 logFC: −0.3316 | Eci1 logFC: −0.2764 | Eci2 logFC: 0.311 | Edem1 logFC: 0.2869 | Edf1 logFC: −0.3817 | Eef1a1 logFC: 0.4393 | Efhd2 logFC: 0.5838 | Egfr logFC: 0.505 | Egr1 logFC: 0.5846 | Ehhadh logFC: −0.2505 | Ei24 logFC: 0.2573 | Eif4b logFC: 0.3682 | Eif4g2 logFC: 0.5597 | Eif5 logFC: 0.5763 | Ell2 logFC: 0.4172 | Elovl2 logFC: 0.4522 | Elovl3 logFC: −0.676 | Ephx2 logFC: −0.3693 | Eprs logFC: 0.3701 | Erbb2ip logFC: 0.3332 | Erp44 logFC: 0.2795 | Esd logFC: −0.2808 | Ethe1 logFC: −0.3334 | Etnppl logFC: 0.4967 | Ets2 logFC: 0.6956 | F2 logFC: 0.3213 | F9 logFC: 0.2568 | F10 logFC: 0.2791 | F12 logFC: 0.2567 | Fah logFC: 0.3025 | Fam25c logFC: −0.2977 | Fam107b logFC: 0.4633 | Fam120a logFC: 0.28
